Reference: PMC12102759 (Protein Science : A Publication of the Protein Society, 2025)
Read-outs that look alike come from different tables or passages of the source.

System: PABPC1 PABC
Type: binding, human
Conditions: DMS-BM library, bait PABPC1 PABC, row aa = residue at this position; for DMS-derived PSSM value (averaged), position A6 / DMS-derived PSSM value, position A6: A = wild type; for DMS-derived PSSM value (averaged), position L2 / DMS-derived PSSM value, position L2 / DMS-derived PSSM value, position L4: L = wild type; for DMS-derived PSSM value, position R12 / DMS-derived PSSM value (averaged), position R12: R = wild type
[1] = prey ATXN2, TLNPNAKEFNPRSF(averaged) over the two overlapping peptides
[2] = prey ATXN2, peptide KSTLNPNAKEFNPRSF, F = wild type
[3] = prey ATXN2, peptide KSTLNPNAKEFNPRSF, P = wild type
[4] = prey ATXN2, peptide KSTLNPNAKEFNPRSF, K = wild type
[5] = prey ATXN2, peptide TLNPNAKEFNPRSFSQ, S = wild type
[6] = prey ATXN2, TLNPNAKEFNPRSF(averaged) over the two overlapping peptides, F = wild type
[7] = prey ATXN2, peptide TLNPNAKEFNPRSFSQ, N = wild type
[8] = prey ATXN2, TLNPNAKEFNPRSF(averaged) over the two overlapping peptides, N = wild type
[9] = prey ATXN2, peptide TLNPNAKEFNPRSFSQ
[10] = prey ATXN2, peptide KSTLNPNAKEFNPRSF, N = wild type
[11] = prey ATXN2, peptide KSTLNPNAKEFNPRSF, S = wild type
[12] = prey ATXN2, TLNPNAKEFNPRSF(averaged) over the two overlapping peptides, P = wild type
[13] = prey ATXN2, peptide KSTLNPNAKEFNPRSF
[14] = prey ATXN2, TLNPNAKEFNPRSF(averaged) over the two overlapping peptides, E = wild type

## TLNPNAKEFNPRSF(averaged) A6F (TLNPNFKEFNPRSF)
[1]
  DMS-derived PSSM value (averaged), position A6: 0

## TLNPNAKEFNPRSFSQ F14I (TLNPNAKEFNPRSISQ)
Prey ATXN2, peptide TLNPNAKEFNPRSFSQ, F = wild type
  DMS-derived PSSM value, position F14: 0.0189

## KSTLNPNAKEFNPRSF F11S (KSTLNPNAKESNPRSF)
[2]
  DMS-derived PSSM value, position F11: 0

## KSTLNPNAKEFNPRSF P13Q (KSTLNPNAKEFNQRSF)
[3]
  DMS-derived PSSM value, position P13: 0.08339

## TLNPNAKEFNPRSF(averaged) L2P (TPNPNAKEFNPRSF)
[1]
  DMS-derived PSSM value (averaged), position L2: 0.01878

## KSTLNPNAKEFNPRSF K9Q (KSTLNPNAQEFNPRSF)
[4]
  DMS-derived PSSM value, position K9: 0.02634

## TLNPNAKEFNPRSFSQ S15G (TLNPNAKEFNPRSFGQ)
[5]
  DMS-derived PSSM value, position S15: 0.2429

## TLNPNAKEFNPRSF(averaged) L2I (TINPNAKEFNPRSF)
[1]
  DMS-derived PSSM value (averaged), position L2: 0.0008035

## TLNPNAKEFNPRSF(averaged) F9Y (TLNPNAKEYNPRSF)
[6]
  DMS-derived PSSM value (averaged), position F9: 0.1609

## TLNPNAKEFNPRSFSQ N10I (TLNPNAKEFIPRSFSQ)
[7]
  DMS-derived PSSM value, position N10: 0.00743

## TLNPNAKEFNPRSFSQ N5A (TLNPAAKEFNPRSFSQ)
[7]
  DMS-derived PSSM value, position N5: 0.004479

## TLNPNAKEFNPRSF(averaged) N5R (TLNPRAKEFNPRSF)
[8]
  DMS-derived PSSM value (averaged), position N5: 0.004628

## KSTLNPNAKEFNPRSF K9H (KSTLNPNAHEFNPRSF)
[4]
  DMS-derived PSSM value, position K9: 0.04428

## TLNPNAKEFNPRSFSQ R12I (TLNPNAKEFNPISFSQ)
[9]
  DMS-derived PSSM value, position R12: 0.04014

## TLNPNAKEFNPRSFSQ A6N (TLNPNNKEFNPRSFSQ)
[9]
  DMS-derived PSSM value, position A6: 0

## TLNPNAKEFNPRSFSQ S13M (TLNPNAKEFNPRMFSQ)
[5]
  DMS-derived PSSM value, position S13: 0.008683

## TLNPNAKEFNPRSFSQ A6Y (TLNPNYKEFNPRSFSQ)
[9]
  DMS-derived PSSM value, position A6: 0

## KSTLNPNAKEFNPRSF N5W (KSTLWPNAKEFNPRSF)
[10]
  DMS-derived PSSM value, position N5: 0

## KSTLNPNAKEFNPRSF P13N (KSTLNPNAKEFNNRSF)
[3]
  DMS-derived PSSM value, position P13: 0.004405

## KSTLNPNAKEFNPRSF S15D (KSTLNPNAKEFNPRDF)
[11]
  DMS-derived PSSM value, position S15: 0

## TLNPNAKEFNPRSFSQ L2N (TNNPNAKEFNPRSFSQ)
[9]
  DMS-derived PSSM value, position L2: 0

## TLNPNAKEFNPRSF(averaged) F14I (TLNPNAKEFNPRSI)
[6]
  DMS-derived PSSM value (averaged), position F14: 0.0374

## TLNPNAKEFNPRSF(averaged) P4H (TLNHNAKEFNPRSF)
[12]
  DMS-derived PSSM value (averaged), position P4: 0.02342

## TLNPNAKEFNPRSF(averaged) F14G (TLNPNAKEFNPRSG)
[6]
  DMS-derived PSSM value (averaged), position F14: 0.002756

## KSTLNPNAKEFNPRSF E10H (KSTLNPNAKHFNPRSF)
Prey ATXN2, peptide KSTLNPNAKEFNPRSF, E = wild type
  DMS-derived PSSM value, position E10: 0.3776

## TLNPNAKEFNPRSFSQ S15A (TLNPNAKEFNPRSFAQ)
[5]
  DMS-derived PSSM value, position S15: 0.02541

## KSTLNPNAKEFNPRSF L4I (KSTINPNAKEFNPRSF)
[13]
  DMS-derived PSSM value, position L4: 0

## TLNPNAKEFNPRSF(averaged) N5G (TLNPGAKEFNPRSF)
[8]
  DMS-derived PSSM value (averaged), position N5: 0.006922

## TLNPNAKEFNPRSFSQ L2F (TFNPNAKEFNPRSFSQ)
[9]
  DMS-derived PSSM value, position L2: 0.1032

## TLNPNAKEFNPRSF(averaged) E8S (TLNPNAKSFNPRSF)
[14]
  DMS-derived PSSM value (averaged), position E8: 0.04903

## KSTLNPNAKEFNPRSF L4W (KSTWNPNAKEFNPRSF)
[13]
  DMS-derived PSSM value, position L4: 0

## TLNPNAKEFNPRSF(averaged) E8V (TLNPNAKVFNPRSF)
[14]
  DMS-derived PSSM value (averaged), position E8: 0.141

## TLNPNAKEFNPRSF(averaged) N3Q (TLQPNAKEFNPRSF)
[8]
  DMS-derived PSSM value (averaged), position N3: 0.0275

## TLNPNAKEFNPRSF(averaged) T1M (MLNPNAKEFNPRSF)
Prey ATXN2, TLNPNAKEFNPRSF(averaged) over the two overlapping peptides, T = wild type
  DMS-derived PSSM value (averaged), position T1: 0.04356

## KSTLNPNAKEFNPRSF N5T (KSTLTPNAKEFNPRSF)
[10]
  DMS-derived PSSM value, position N5: 0

## TLNPNAKEFNPRSFSQ R12D (TLNPNAKEFNPDSFSQ)
[9]
  DMS-derived PSSM value, position R12: 0.05154

## TLNPNAKEFNPRSF(averaged) P11G (TLNPNAKEFNGRSF)
[12]
  DMS-derived PSSM value (averaged), position P11: 0.05139

## TLNPNAKEFNPRSF(averaged) P4A (TLNANAKEFNPRSF)
[12]
  DMS-derived PSSM value (averaged), position P4: 0.01026

## KSTLNPNAKEFNPRSF S2K (KKTLNPNAKEFNPRSF)
[11]
  DMS-derived PSSM value, position S2: 0

## TLNPNAKEFNPRSF(averaged) E8K (TLNPNAKKFNPRSF)
[14]
  DMS-derived PSSM value (averaged), position E8: 0.03159

## TLNPNAKEFNPRSFSQ S15I (TLNPNAKEFNPRSFIQ)
[5]
  DMS-derived PSSM value, position S15: 0.0111

## TLNPNAKEFNPRSF(averaged) R12V (TLNPNAKEFNPVSF)
[1]
  DMS-derived PSSM value (averaged), position R12: 0.08681

## TLNPNAKEFNPRSFSQ E8W (TLNPNAKWFNPRSFSQ)
Prey ATXN2, peptide TLNPNAKEFNPRSFSQ, E = wild type
  DMS-derived PSSM value, position E8: 0

## KSTLNPNAKEFNPRSF K9M (KSTLNPNAMEFNPRSF)
[4]
  DMS-derived PSSM value, position K9: 0.1105

## TLNPNAKEFNPRSFSQ N3R (TLRPNAKEFNPRSFSQ)
[7]
  DMS-derived PSSM value, position N3: 0.02401

## TLNPNAKEFNPRSFSQ T1A (ALNPNAKEFNPRSFSQ)
Prey ATXN2, peptide TLNPNAKEFNPRSFSQ, T = wild type
  DMS-derived PSSM value, position T1: 0.03403

## TLNPNAKEFNPRSF(averaged) N5I (TLNPIAKEFNPRSF)
[8]
  DMS-derived PSSM value (averaged), position N5: 0.2839

## KSTLNPNAKEFNPRSF F16H (KSTLNPNAKEFNPRSH)
[2]
  DMS-derived PSSM value, position F16: 0.03107

## KSTLNPNAKEFNPRSF P6Y (KSTLNYNAKEFNPRSF)
[3]
  DMS-derived PSSM value, position P6: 0

## TLNPNAKEFNPRSFSQ N5K (TLNPKAKEFNPRSFSQ)
[7]
  DMS-derived PSSM value, position N5: 0.01257

## TLNPNAKEFNPRSF(averaged) P11L (TLNPNAKEFNLRSF)
[12]
  DMS-derived PSSM value (averaged), position P11: 0.01529

## TLNPNAKEFNPRSFSQ P11I (TLNPNAKEFNIRSFSQ)
Prey ATXN2, peptide TLNPNAKEFNPRSFSQ, P = wild type
  DMS-derived PSSM value, position P11: 0.0006115

## TLNPNAKEFNPRSF(averaged) A6Y (TLNPNYKEFNPRSF)
[1]
  DMS-derived PSSM value (averaged), position A6: 0

## TLNPNAKEFNPRSF(averaged) E8W (TLNPNAKWFNPRSF)
[14]
  DMS-derived PSSM value (averaged), position E8: 0

## KSTLNPNAKEFNPRSF S2N (KNTLNPNAKEFNPRSF)
[11]
  DMS-derived PSSM value, position S2: 0

## TLNPNAKEFNPRSF(averaged) R12A (TLNPNAKEFNPASF)
[1]
  DMS-derived PSSM value (averaged), position R12: 0.05134

## TLNPNAKEFNPRSFSQ K7H (TLNPNAHEFNPRSFSQ)
Prey ATXN2, peptide TLNPNAKEFNPRSFSQ, K = wild type
  DMS-derived PSSM value, position K7: 0.02911

## TLNPNAKEFNPRSF(averaged) N3S (TLSPNAKEFNPRSF)
[8]
  DMS-derived PSSM value (averaged), position N3: 0.2635

## KSTLNPNAKEFNPRSF P6L (KSTLNLNAKEFNPRSF)
[3]
  DMS-derived PSSM value, position P6: 0.1435

## TLNPNAKEFNPRSF(averaged) S13E (TLNPNAKEFNPREF)
Prey ATXN2, TLNPNAKEFNPRSF(averaged) over the two overlapping peptides, S = wild type
  DMS-derived PSSM value (averaged), position S13: 0.01358
